Results: patent publication US9512128B2 (BAYER CROPSCIENCE AG, priority 2012, dated 2016)
Where two headings read alike, the source gives them in different places.

Test: log P by HPLC on reversed-phase columns (C 18), EEC directive 79/831 Annex V.A8
Assay type: physicochemical
Conditions: for logP[a]: method [a]; for logP[b]: method [b]
Method: The log P values were determined according to EEC directive 79/831 Annex V.A8 by HPLC (High Performance Liquid Chromatography) on reversed-phase columns (C 18), using the methods below:
[a] The LC-MS determination in the acidic range is carried out at pH 2.7 with 0.1% aqueous formic acid and acetonitrile (contains 0.1% formic acid) as mobile phases; linear gradient from 10% acetonitrile to 95% acetonitrile.
[b] The LC-MS determination in the neutral range is carried out at pH 7.8 using the mobile phases 0.001 molar aqueous ammonium bicarbonate solution and acetonitrile; linear gradient from 10% acetonitrile to 95% acetonitrile.

[1] = reversed-phase C18 HPLC column, pH 2.7, acidic range, pH 2.7, 0.1% aqueous formic acid / acetonitrile, read-out: log P[a]
[2] = reversed-phase C18 HPLC column, pH 7.8, neutral range, pH 7.8, 0.001 molar aqueous ammonium bicarbonate / acetonitrile, read-out: log P[b]
[3] = acidic range, pH 2.7, 0.1% aqueous formic acid / acetonitrile, read-out: log P[a]
[4] = neutral range, pH 7.8, 0.001 molar aqueous ammonium bicarbonate / acetonitrile, read-out: log P[b]

Nc1ccc(Cl)c(SSc2cc(N)ccc2Cl)c1 [XVIII-3, 3,3′-Disulphanediylbis(4-chloroaniline)]
chromatographic logP [1]: 3.31 | chromatographic logP [2]: 3.35

Cc1cc(C)c([S+]([O-])CC(F)(F)F)cc1-n1c(C)nc2c(cnn2C)c1=O (racemic) [Compound 10]
logP[a]: 1.86 | logP[b]: 1.84

Cn1ncc2c(=O)n(-c3ccc(C(F)(F)F)c(SCC(F)(F)F)c3)cnc21 [Compound 25]
logP[a]: 2.82 | logP[b]: 2.75

Cc1cc(F)c(Br)cc1SCC(F)(F)F [VIIa-1, 1-Bromo-2-fluoro-4-methyl-5-[(2,2,2-trifluoroethyl)sulphanyl]benzene]
chromatographic logP [1]: 4.3 | chromatographic logP [2]: 4.34

Cc1cc(C)c([S+]([O-])CC(F)(F)F)cc1-n1cnc2ncsc2c1=O (stereo not drawn) [Compound 81]
logP[a]: 1.65 | logP[b]: 1.62

Cc1cc(F)c(-n2c(C(F)(F)F)nc3c(cnn3C)c2=O)cc1SCC(F)(F)F [Compound 13, 5-{2-Fluoro-4-methyl-5-[(2,2,2-trifluoroethyl)sulphanyl]phenyl}-1-methyl-6-(trifluoromethyl)-1,5-dihydro-4H-pyrazolo[3,4-d]pyrimidin-4-one]
chromatographic logP [1]: 3.75 | chromatographic logP (reversed-phase C18 HPLC column, pH 2.7, method [a], read-out: logP[a]): 3.75 | chromatographic logP (reversed-phase C18 HPLC column, pH 7.8, method [b], read-out: logP[b]): 3.94 | chromatographic logP [2]: 3.94

Cc1cc(F)c(N)cc1S [XVI-1, 5-Amino-4-fluoro-2-methylbenzenethiol]
chromatographic logP [1]: 3.7

O=C(Nc1cc(SSc2cc(NC(=O)C(F)(F)F)c(F)cc2Cl)c(Cl)cc1F)C(F)(F)F [XI-2, N,N′-[Disulphanediylbis(4-chloro-6-fluorobenzene-3,1-diyl)]bis(2,2,2-trifluoroacetamide)]
chromatographic logP [1]: 4.6 | chromatographic logP [2]: 3.82

COc1ccc(Br)cc1SCC(F)(F)F [VIIa-8, 4-Bromo-1-methoxy-2-[(2,2,2-trifluoroethyl)sulphanyl]benzene]
chromatographic logP [1]: 3.69 | chromatographic logP [2]: 3.81

O=c1c2ccsc2ncn1-c1cc([S+]([O-])CC(F)(F)F)c(Cl)cc1Cl (stereo not drawn) [Compound 98]
logP[a]: 2.53 | logP[b]: 2.53

Cc1nc2c(cnn2C)c(=O)n1-c1cc(SCC(F)(F)F)c(Cl)cc1Cl [Compound 5]
logP[a]: 3.18 | logP[b]: 3.11

Nc1cc(SSc2ccc(Cl)c(N)c2)ccc1Cl [XVIII-4, 3,3′-Disulphanediylbis(6-chloroaniline)]
chromatographic logP [1]: 3.84 | chromatographic logP [2]: 3.83

Cc1cc(F)c(I)cc1SCC(F)(F)F [VIIa-1-I, 1-Fluoro-2-iodo-5-methyl-4-[(2,2,2-trifluoroethyl)sulphanyl]benzene]
chromatographic logP [1]: 4.44 | chromatographic logP [2]: 4.44

O=c1c2ccsc2ncn1-c1ccc(C(F)(F)F)c([S+]([O-])CC(F)(F)F)c1 (stereo not drawn) [Compound 99]
logP[a]: 2.54 | logP[b]: 2.51

O=C(Nc1cc(SCC(F)(F)F)c(Cl)cc1F)C(F)(F)F [Compound X-2, N-{4-Chloro-2-fluoro-5-[(2,2,2-trifluoroethyl)sulphanyl]phenyl}-2,2,2-trifluoroacetamide]
chromatographic logP [1]: 3.34 | chromatographic logP [2]: 3.14

Cc1cc(F)c(NC(=O)c2cnn(C)c2N)cc1SCC(F)(F)F [5-Amino-N-{2-fluoro-4-methyl-5-[(2,2,2-trifluoroethyl)sulphanyl]phenyl}-1-methyl-1H-pyrazole-4-carboxamide]
chromatographic logP [1]: 2.44 | chromatographic logP [2]: 2.23

Cc1cc(F)c(-n2cnc3c(cnn3CC(F)(F)F)c2=O)cc1SCC(F)(F)F [Compound 17]
logP[a]: 3.31 | logP[b]: 3.21

N#Cc1ccc(Br)cc1SCC(F)(F)F [VIIa-9, 4-Bromo-2-[(2,2,2-trifluoroethyl)sulphanyl]benzonitrile]
chromatographic logP [1]: 3.21 | chromatographic logP [2]: 3.16

Cn1ncc2c(=O)n(-c3cc(SCC(F)(F)F)c(Cl)cc3Cl)cnc21 [Compound 3]
logP[a]: 2.94 | logP[b]: 2.94

COc1ccc(-n2cnc3sccc3c2=O)cc1SCC(F)(F)F [Compound 84]
logP[a]: 2.75 | logP[b]: 2.71

Cc1cc(F)c(B(O)O)cc1[S+]([O-])CC(F)(F)F (stereo not drawn) [VIIIb-1, {2-Fluoro-4-methyl-5-[(2,2,2-trifluoroethyl)sulphinyl]phenyl}boronic acid]
chromatographic logP [1]: 1.38 | chromatographic logP [2]: 1.11

Cc1cc(F)c(-n2cnc3ccsc3c2=O)cc1SCC(F)(F)F [Compound 109]
logP[a]: 3.50 | logP[b]: 3.42

Cc1ccc(NC(=O)C(F)(F)F)c(F)c1 [XIII-1, 2,2,2-Trifluoro-N-(2-fluoro-4-methylphenyl)acetamide]
chromatographic logP [1]: 2.4

Cc1nn(C)c2ncn(-c3ccc(C#N)c([S+]([O-])CC(F)(F)F)c3)c(=O)c12 (stereo not drawn) [Compound 35]
logP[a]: 1.74 | logP[b]: 1.70

Nc1cc(SSc2cc(N)c(Cl)cc2Cl)c(Cl)cc1Cl [XVIII-6, 3,3′-Disulphanediylbis(4,6-dichloroaniline)]
chromatographic logP [1]: 5.14 | chromatographic logP [2]: 4.95

Cc1cc(F)c(NC(=O)C(F)(F)F)cc1SSc1cc(NC(=O)C(F)(F)F)c(F)cc1C [XI-1, N,N′-[Disulphanediylbis(6-fluoro-4-methylbenzene-3,1-diyl)]bis(2,2,2-trifluoroacetamide)]
chromatographic logP [1]: 4.41

Cc1cc(F)c(-n2c(C(F)(F)F)nc3scnc3c2=O)cc1SCC(F)(F)F [Compound 65]
logP[a]: 3.55 | logP[b]: 3.51

Cc1cc(C)c(-n2c(C(F)(F)F)nc3c(cnn3C)c2=O)cc1SCC(F)(F)F [Compound 11]
logP[a]: 3.83 | logP[b]: 3.77

Cc1ccc(Br)cc1SSc1cc(Br)ccc1C
chromatographic logP [1]: > 7.36 | chromatographic logP [2]: > 7.36

Cc1ccc(I)cc1SCC(F)(F)F [VIIa-7-I, 4-Iodo-1-methyl-2-[(2,2,2-trifluoroethyl)sulphanyl]benzene]
chromatographic logP [1]: 4.49 | chromatographic logP [2]: 4.48

O=[N+]([O-])c1cc(SSc2cc([N+](=O)[O-])c(Cl)cc2Cl)c(Cl)cc1Cl [XIX-6, 1,1′-Disulphanediylbis(2,4-dichloro-5-nitrobenzene)]
chromatographic logP [3]: 5.69 | chromatographic logP [4]: 5.64

Cc1ccc(-n2cnc3nn(C)c(C)c3c2=O)cc1SCC(F)(F)F [Compound 44]
logP[a]: 2.38 | logP[b]: 2.33

Cc1cc(C)c(SCC(F)(F)F)cc1Br [VIIa-11, 1-Bromo-2,4-dimethyl-5-[(2,2,2-trifluoroethyl)sulphanyl]benzene]
chromatographic logP [1]: 4.81 | chromatographic logP [2]: 4.77

O=c1c2ccsc2ncn1-c1ccc(Cl)c(SCC(F)(F)F)c1 [Compound 85]
logP[a]: 3.09 | logP[b]: 3.03

Cc1cc(F)c(-n2cnc3c(Cl)c(Cl)sc3c2=O)cc1[S+]([O-])CC(F)(F)F (stereo not drawn) [Compound 115]
logP[a]: 3.20 | logP[b]: 3.13

Nc1ccc(Cl)c(S)c1 [XVI-3, 5-Amino-2-chlorobenzenethiol]
chromatographic logP [1]: 1.64

Cc1ccc(B2OC(C)(C)C(C)(C)O2)cc1SCC(F)(F)F [4,4,5,5-Tetramethyl-2-{4-methyl-3-[(2,2,2-trifluoroethyl)sulphanyl]phenyl}-1,3,2-dioxaborolane]
chromatographic logP [1]: 3.73 | chromatographic logP [2]: 3.74

O=C(Nc1ccc(Cl)cc1F)C(F)(F)F [XIII-2, N-(4-Chloro-2-fluorophenyl)-2,2,2-trifluoroacetamide]
chromatographic logP [3]: 2.53 | chromatographic logP [4]: 2.4

Cc1ccc(-n2cnc3c(cnn3C)c2=O)cc1SCC(F)(F)F [Compound 8]
logP[a]: 2.56 | logP[b]: 2.54

Cc1ccc(Br)cc1S(=O)(=O)Cl [5-Bromo-2-methylbenzenesulphonyl chloride]
chromatographic logP [1]: 3.73 | chromatographic logP [2]: 3.74

Cc1cc(F)c(-n2c(C)nc3c(cnn3CC(F)(F)F)c2=O)cc1[S+]([O-])CC(F)(F)F (racemic) [Compound 22]
logP[a]: 2.52

Cc1cc(F)c(B(O)O)cc1SCC(F)(F)F [VIIIa-1, {2-Fluoro-4-methyl-5-[(2,2,2-trifluoroethyl)sulphanyl]phenyl}boronic acid]
chromatographic logP [1]: 2.34 | chromatographic logP [2]: 2.41

Cc1cc(F)c(-n2cnc3c(Cl)csc3c2=O)cc1SCC(F)(F)F [Compound 110]
logP[a]: 3.56 | logP[b]: 3.41

Cc1cc(C)c([S+]([O-])CC(F)(F)F)cc1-n1cnc2c(cnn2C)c1=O (racemic) [Compound 9]
logP[a]: 1.74 | logP[b]: 1.74

O=c1c2sccc2ncn1-c1ccc(Cl)c(SCC(F)(F)F)c1 [Compound 103]
logP[a]: 2.90 | logP[b]: 2.84

Nc1cc(SCC(F)(F)F)c(Cl)cc1F [IVa-2, 4-Chloro-2-fluoro-5-[(2,2,2-trifluoroethyl)sulphanyl]aniline]
chromatographic logP [1]: 3.02 | chromatographic logP [2]: 3

CC(=O)Nc1cc(SC(C)=O)c(C)cc1F [XVII-1, S-(5-Acetamido-4-fluoro-2-methylphenyl)ethanethioate]
chromatographic logP [1]: 1.78

Cn1ncc2c(=O)n(-c3ccc(Cl)c(SCC(F)(F)F)c3)cnc21 [Compound 23]
logP[a]: 2.58 | logP[b]: 2.53

Cc1ccc(-n2cnc3ccsc3c2=O)cc1[S+]([O-])CC(F)(F)F (stereo not drawn) [Compound 101]
logP[a]: 1.82 | logP[b]: 1.81

O=c1c2sccc2ncn1-c1ccc(C(F)(F)F)c([S+]([O-])CC(F)(F)F)c1 (stereo not drawn) [Compound 107]
logP[a]: 2.44 | logP[b]: 2.40
